This passage reports IC50 and inhibition results from ChEMBL document CHEMBL4261540, “Approaches to selective fibroblast growth factor receptor 4 inhibition through targeting the ATP-pocket middle-hinge region” (Medchemcomm, 2017).

Assay [1] has as its target Fibroblast growth factor receptor 3 (Homo sapiens, UniProt P22607).
For assay [2], the target named is Fibroblast growth factor receptor 2 (Homo sapiens, UniProt P21802). It is filed as ADME.
The target of assay [3] is Fibroblast growth factor receptor 1 (Homo sapiens, UniProt P11362).
Assay [4] deals with Fibroblast growth factor receptor 4 (Homo sapiens, UniProt P22455, C552A).
The target of assay [5] is Fibroblast growth factor receptor 4 (Homo sapiens, UniProt P22455, C477A).
Assay [6] concerns the target T1, Fibroblast growth factor receptor 4 (Homo sapiens, UniProt P22455).
Assay [7] addresses T2, MAP kinase-activated protein kinase 2 (Homo sapiens, UniProt P49137). The assay is described as follows: Inhibition of human MK2 by [gamma33P]ATP assay.
Target sequence in this assay (P49137 whole entry): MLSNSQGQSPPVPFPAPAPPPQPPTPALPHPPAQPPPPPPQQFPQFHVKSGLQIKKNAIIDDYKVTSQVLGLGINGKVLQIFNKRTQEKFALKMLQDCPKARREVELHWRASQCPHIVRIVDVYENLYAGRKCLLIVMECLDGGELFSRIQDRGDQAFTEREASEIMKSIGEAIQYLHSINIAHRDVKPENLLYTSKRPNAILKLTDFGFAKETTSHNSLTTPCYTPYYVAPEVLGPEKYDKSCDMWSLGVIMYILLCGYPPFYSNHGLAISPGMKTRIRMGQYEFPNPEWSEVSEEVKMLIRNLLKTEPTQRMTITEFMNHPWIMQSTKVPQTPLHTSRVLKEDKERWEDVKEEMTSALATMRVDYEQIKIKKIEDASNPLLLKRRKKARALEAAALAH
Assay [8] has as its target T2, MAP kinase-activated protein kinase 2. The assay is described as follows: Inhibition of human MK2 at 10 uM by [gamma33P]ATP assay.
Target sequence in this assay (P49137 whole entry, looked up): as the sequence (P49137 whole entry) above
Assay [9] has as its target T1, Fibroblast growth factor receptor 4. The source holds these as a separate data set.

Active and inactive are the calls of the source. No cut-off for these calls is given here.

Fibroblast growth factor receptor 2, sequence (P21802 whole entry): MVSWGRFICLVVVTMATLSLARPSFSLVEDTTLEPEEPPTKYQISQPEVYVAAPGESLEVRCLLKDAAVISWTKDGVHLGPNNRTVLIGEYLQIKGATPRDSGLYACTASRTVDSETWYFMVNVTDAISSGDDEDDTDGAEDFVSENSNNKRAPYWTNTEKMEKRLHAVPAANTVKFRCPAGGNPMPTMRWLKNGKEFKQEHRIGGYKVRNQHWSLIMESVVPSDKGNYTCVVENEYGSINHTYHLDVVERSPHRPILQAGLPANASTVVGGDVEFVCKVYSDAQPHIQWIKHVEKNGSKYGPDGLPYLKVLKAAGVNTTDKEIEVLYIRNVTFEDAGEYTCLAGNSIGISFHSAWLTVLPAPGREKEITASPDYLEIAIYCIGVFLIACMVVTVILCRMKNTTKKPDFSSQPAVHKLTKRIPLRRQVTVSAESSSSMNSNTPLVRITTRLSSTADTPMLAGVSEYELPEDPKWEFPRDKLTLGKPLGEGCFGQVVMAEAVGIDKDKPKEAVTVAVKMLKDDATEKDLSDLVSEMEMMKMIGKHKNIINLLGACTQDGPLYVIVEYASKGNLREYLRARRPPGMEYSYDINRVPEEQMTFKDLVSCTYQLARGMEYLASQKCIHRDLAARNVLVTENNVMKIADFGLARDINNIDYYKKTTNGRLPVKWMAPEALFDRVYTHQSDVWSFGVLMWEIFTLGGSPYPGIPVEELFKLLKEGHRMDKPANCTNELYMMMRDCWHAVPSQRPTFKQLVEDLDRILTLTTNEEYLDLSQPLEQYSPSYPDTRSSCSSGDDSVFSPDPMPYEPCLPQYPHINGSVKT
T1 sequence (P22455 whole entry): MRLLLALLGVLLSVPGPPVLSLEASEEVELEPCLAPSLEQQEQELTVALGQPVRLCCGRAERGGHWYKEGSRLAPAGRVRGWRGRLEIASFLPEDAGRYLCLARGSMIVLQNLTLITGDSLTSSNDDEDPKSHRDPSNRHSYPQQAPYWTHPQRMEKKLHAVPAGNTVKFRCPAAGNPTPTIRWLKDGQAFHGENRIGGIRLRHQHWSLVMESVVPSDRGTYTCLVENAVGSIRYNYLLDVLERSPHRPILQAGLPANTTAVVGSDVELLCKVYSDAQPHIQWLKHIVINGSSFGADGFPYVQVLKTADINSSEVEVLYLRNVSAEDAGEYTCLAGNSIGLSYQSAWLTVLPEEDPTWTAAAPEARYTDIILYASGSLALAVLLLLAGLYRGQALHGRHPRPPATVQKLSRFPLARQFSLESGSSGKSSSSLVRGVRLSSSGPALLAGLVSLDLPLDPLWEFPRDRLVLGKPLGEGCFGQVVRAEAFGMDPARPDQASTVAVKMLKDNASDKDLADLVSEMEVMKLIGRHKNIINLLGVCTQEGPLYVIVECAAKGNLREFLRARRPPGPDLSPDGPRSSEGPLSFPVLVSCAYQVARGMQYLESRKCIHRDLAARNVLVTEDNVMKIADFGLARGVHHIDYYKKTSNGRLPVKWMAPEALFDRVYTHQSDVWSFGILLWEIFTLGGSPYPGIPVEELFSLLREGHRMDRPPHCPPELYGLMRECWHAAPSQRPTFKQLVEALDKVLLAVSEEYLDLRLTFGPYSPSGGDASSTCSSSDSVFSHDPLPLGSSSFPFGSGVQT
Fibroblast growth factor receptor 1, sequence (P11362 whole entry): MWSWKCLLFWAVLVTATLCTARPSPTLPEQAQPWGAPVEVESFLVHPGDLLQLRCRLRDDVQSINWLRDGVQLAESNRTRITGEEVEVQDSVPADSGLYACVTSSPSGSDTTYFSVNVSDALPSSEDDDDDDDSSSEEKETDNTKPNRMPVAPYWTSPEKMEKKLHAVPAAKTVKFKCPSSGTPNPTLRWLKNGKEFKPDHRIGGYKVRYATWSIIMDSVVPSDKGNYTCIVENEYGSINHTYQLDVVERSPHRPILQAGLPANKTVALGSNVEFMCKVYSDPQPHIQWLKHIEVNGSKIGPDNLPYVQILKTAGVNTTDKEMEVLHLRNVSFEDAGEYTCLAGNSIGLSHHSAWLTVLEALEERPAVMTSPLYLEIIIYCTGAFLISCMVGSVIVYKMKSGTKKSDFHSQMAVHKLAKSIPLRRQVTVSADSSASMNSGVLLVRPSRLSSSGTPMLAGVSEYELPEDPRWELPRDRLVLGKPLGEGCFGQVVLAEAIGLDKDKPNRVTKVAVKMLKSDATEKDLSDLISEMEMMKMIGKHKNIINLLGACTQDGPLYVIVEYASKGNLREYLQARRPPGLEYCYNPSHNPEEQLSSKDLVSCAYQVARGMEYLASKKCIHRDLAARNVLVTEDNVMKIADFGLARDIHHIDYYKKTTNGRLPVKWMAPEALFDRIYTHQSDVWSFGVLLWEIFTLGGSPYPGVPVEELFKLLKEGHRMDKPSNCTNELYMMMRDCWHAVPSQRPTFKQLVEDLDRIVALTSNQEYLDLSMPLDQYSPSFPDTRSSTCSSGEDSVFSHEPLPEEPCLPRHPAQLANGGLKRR
Fibroblast growth factor receptor 3, sequence (P22607 whole entry): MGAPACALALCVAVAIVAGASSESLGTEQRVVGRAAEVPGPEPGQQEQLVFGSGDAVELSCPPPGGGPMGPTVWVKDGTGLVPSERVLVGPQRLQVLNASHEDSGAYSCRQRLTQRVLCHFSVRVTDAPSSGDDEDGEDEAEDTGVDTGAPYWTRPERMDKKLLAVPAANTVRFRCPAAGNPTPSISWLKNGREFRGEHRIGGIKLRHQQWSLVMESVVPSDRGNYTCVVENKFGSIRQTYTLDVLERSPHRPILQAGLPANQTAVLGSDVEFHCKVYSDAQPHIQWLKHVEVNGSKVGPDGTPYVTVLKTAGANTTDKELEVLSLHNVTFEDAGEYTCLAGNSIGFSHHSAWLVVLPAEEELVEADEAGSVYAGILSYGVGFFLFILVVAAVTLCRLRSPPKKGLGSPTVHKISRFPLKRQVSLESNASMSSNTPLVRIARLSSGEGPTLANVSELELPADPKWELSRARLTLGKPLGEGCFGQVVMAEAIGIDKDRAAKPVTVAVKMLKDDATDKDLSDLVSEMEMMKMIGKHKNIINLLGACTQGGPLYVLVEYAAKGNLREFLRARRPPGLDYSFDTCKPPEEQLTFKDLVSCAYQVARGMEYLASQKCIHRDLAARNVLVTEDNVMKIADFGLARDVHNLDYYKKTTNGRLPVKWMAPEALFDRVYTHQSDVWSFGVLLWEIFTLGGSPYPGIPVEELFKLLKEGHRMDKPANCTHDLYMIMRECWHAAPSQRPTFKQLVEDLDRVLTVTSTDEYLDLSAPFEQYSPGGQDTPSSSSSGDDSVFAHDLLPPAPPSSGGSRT
Fibroblast growth factor receptor 4 (Homo sapiens, UniProt P22455, C477A), sequence (P22455 22-802 C477A limits assumed): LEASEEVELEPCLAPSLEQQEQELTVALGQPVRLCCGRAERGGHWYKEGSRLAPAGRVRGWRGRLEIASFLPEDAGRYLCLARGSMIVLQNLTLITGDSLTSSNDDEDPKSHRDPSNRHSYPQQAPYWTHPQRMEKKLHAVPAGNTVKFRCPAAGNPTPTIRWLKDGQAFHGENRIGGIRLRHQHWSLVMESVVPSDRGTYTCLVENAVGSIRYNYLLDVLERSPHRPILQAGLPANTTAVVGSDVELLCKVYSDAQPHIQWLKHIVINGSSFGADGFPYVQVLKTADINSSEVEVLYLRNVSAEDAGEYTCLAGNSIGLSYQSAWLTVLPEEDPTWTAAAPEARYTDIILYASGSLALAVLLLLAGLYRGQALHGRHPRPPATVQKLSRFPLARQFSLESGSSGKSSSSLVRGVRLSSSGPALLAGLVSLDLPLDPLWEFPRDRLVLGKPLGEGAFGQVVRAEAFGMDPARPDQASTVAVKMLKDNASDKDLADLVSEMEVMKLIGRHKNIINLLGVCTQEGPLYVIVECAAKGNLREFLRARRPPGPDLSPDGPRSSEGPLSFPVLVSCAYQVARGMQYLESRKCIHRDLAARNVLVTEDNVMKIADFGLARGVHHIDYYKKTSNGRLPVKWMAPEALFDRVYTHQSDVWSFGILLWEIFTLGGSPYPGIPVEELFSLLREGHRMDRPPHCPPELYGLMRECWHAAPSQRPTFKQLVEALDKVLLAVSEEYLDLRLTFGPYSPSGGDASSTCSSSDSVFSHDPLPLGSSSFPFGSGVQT
Fibroblast growth factor receptor 4 (Homo sapiens, UniProt P22455, C552A), sequence (P22455 22-802 C552A limits assumed): as the sequence (P22455 22-802 C477A limits assumed) above, with A456C, C531A counted along it

Regarding `C=CC(=O)Nc1cccc(C)c1Nc1ncc2cc(-c3c(Cl)c(OC)cc(OC)c3Cl)ccc2n1`, the IC50 (as a rule, the concentration that gives 50% inhibition) in [1] stood at 0.78 µM; in [2] it was 1.7 µM; in [3], 3.2 µM.

As to `O=Cc1ccc2cccc(C(=O)Nc3ccc(C(F)(F)F)cc3)c2n1`, the IC50 in [4], in assay [5] and in assay [6] was more than 10 µM each time.

For the compound `O=C(Nc1ccc(C(F)(F)F)cn1)c1cccc2cccnc12`, the IC50 in assay [4], in assay [5] and in [6] was more than 10 µM throughout.

In the case of `O=Cc1ccc2cccc(C(=O)Nc3ccc(C(F)(F)F)cn3)c2n1`, the IC50 is more than 10 µM in [1], 2.3 µM in assay [7], more than 10 µM in assay [2] and more than 10 µM in assay [3]. In addition, the inhibition result in assay [8] was “Active”.

Turning to `O=[N+]([O-])c1ccc(Cl)nc1Nc1ncc(C(F)(F)F)cc1Cl`, the IC50 in assay [1], in [2] and in [3] was more than 10 µM in each case.

In the case of `CC(C)COc1cc(N2CCC(N(C)C)CC2)ccc1Nc1ncc(C#N)c(N[C@H]2[C@@H](C(N)=O)[C@@H]3C=C[C@H]2C3)n1`, the IC50 in assay [1] came out at 3.5 µM; in assay [2], 0.363 µM.

As to `CC(C)Oc1cc(N2CCC(N3CCN(C)CC3)CC2)ccc1Nc1ncc(Cl)c(Nc2ccccc2S(=O)(=O)C(C)C)n1`, the IC50 came out at 8 µM in assay [1], 0.029 µM in assay [9], 4.43 µM in [2] and 6.35 µM in assay [3].
